Laboratory results taken from patent US20220213060A1, “Crystal Form of Quinazolinone Compound and Preparation Method Therefor” (Luoxin Healthcare Science and Technology Development …, priority 2019, published 2022).
Read-outs that look alike come from different tables or passages of the source.

Key:
[1] = system: HR+/HER2+ human breast cancer BT-474 (PIK3CA amplified); test: In vivo pharmacodynamic study, BT-474 nude mouse subcutaneous xenograft tumor model; parameters: species or system BALB/c nude mice
Description: The phenotype of human BT-474 breast cancer cells is HR+/HER2+, and it has PIK3CA amplification. This experiment evaluated the efficacy of the crystal form A of the compound represented by formula (I) in a human breast cancer xenograft tumor model, using BYL-719 as a reference.
Cell culture: Human breast cancer BT474 cells were cultured in vitro in a single layer, the culture condition was Hybri-Care medium with 10% fetal bovine serum and the cells were incubated in 5% CO2 at 37° C. Digestion and passage treatment with trypsin-EDTA was carried out twice a week. When the cell saturation was 80%-90% and the number reached the requirement, the cells were collected, counted and inoculated.
Animals: BALB/c nude mice, female, 6-8 weeks old, weighing 18-20 g. A total of 85 animals were required, and provided by Shanghai Bikai experimental animal Co., Ltd.
Tumor inoculation: Estrogen tablets (0.36 mg/tablet) were subcutaneously inoculated on the left back of each mouse, three days later, 0.2 mL (10×10^6 cells) of BT474 cells (with matrigel in a volume ratio of 1:1) were subcutaneously inoculated on the right back of each mouse, group administration was started when the average tumor volume reached 150 mm^3−200 mm^3.
Tumor-bearing mice in each administration group had good tolerance to the tested compounds.

[2] = Solid stability test of crystal form A (influencing factors and accelerated conditions, HPLC/XRPD); type: physicochemical
Description: 1.5 High Performance Liquid Chromatograph Method
Sample concentration: 0.5 mg/mL
The stability of the crystal form A of the compound represented by formula (I) was investigated according to the Guideline for Stability Testing of APIs and Formulations (Chinese Pharmacopoeia 2015 Edition IV General Rule 9001).
5 mg of the crystal form A of the compound represented by formula (I) was weighed separately, placed in a dry and clean glass bottle, in duplicate, spread into a thin layer, as a formal test sample, the two samples were placed under the test conditions of influencing factors (60° C., 92.5% relative humidity) and accelerated conditions (30° C./65% relative humidity, 40° C./75% relative humidity and 60° C./75% relative humidity), the samples were fully exposed, covered with aluminum foil and pierced with small holes. Sampling and analysis were performed on day 5, day 10, and 1 month. Samples placed under illumination (total illumination 1200000 Lux·hr, near ultraviolet 200 w·hr/m^2) were completely exposed at room temperature.

[3] = Beagle dog absorption test (pharmacokinetics); type: in vivo, Beagle dogs
Description: Beagle dogs were given the crystal form A of the compound represented by formula (I) by single or multiple oral administration and single intravenous injection respectively, with 6 dogs in each group, half male and half female. The single oral doses were 0.3, land 3 mg/kg respectively; the multiple doses were 1 mg/kg, once a day for 7 consecutive days; the single intravenous dose was 0.3 mg/kg. According to the drug plasma concentration-time curve, the pharmacokinetic parameters were calculated, the results are shown in Table 15. The vehicle for drug preparation in group 1 was 5% HP-beta-CD, 5% solutol, pH=8 aqueous solution, the vehicles for groups 2, 3, 4 were 0.5% MC, 0.2% Tween80 aqueous solution.

[4] = 10 mg/kg, oral once a day for 20 days
[5] = 10 mg/kg, oral once a day for 20 days, listed as crystal form A of the compound represented by formula (I)
[6] = 20 mg/kg, oral once a day for 20 days
[7] = 20 mg/kg, oral once a day for 20 days, listed as crystal form A of the compound represented by formula (I)
[8] = 40 mg/kg, oral once a day for 20 days
[9] = 40 mg/kg, oral once a day for 20 days, listed as crystal form A of the compound represented by formula (I)
[10] = 30° C., relative humidity 65%, open, 1 month
[11] = 30° C., relative humidity 65%, open, Day 10
[12] = 40° C., relative humidity 75%, open, 1 month
[13] = 40° C., relative humidity 75%, open, Day 10
[14] = 60° C., relative humidity 75%, open, 1 month
[15] = 60° C., relative humidity 75%, open, Day 10
[16] = High humidity (25° C./92.5% relative humidity, open), Day 5
[17] = High humidity (25° C./92.5% relative humidity, open), Day 10
[18] = High temperature (60° C., open), Day 5
[19] = High temperature (60° C., open), Day 10
[20] = Illumination (total illumination 1.2 × 106 Lux · hr/near ultraviolet 200 w · hr/m^2, open), Day 10
[21] = In the absence of light, Day 10
[22] = both sexes, beagle, dog, plasma, po, 0.3 mg/kg, male and female Beagle dogs, single
[23] = both sexes, dog, plasma, iv, male and female Beagle dogs, vein, 0.3 mg/kg, single
[24] = both sexes, dog, plasma, male and female Beagle dogs, oral, 0.3 mg/kg, single
[25] = both sexes, dog, plasma, male and female Beagle dogs, oral, 1 mg/kg once a day, day 7
[26] = both sexes, dog, plasma, male and female Beagle dogs, oral, 1 mg/kg, day 1
[27] = both sexes, dog, plasma, male and female Beagle dogs, oral, 3 mg/kg, single
[28] = male and female beagle dogs, oral, 1 mg/kg for 7 consecutive days, 7 days after the administration
[29] = male and female beagle dogs, oral, 1 mg/kg, 1 day after the administration

With `CNC(=O)[C@H](C)Cn1cnc2ccc(-c3cnc(OC)c(NS(=O)(=O)c4ccc(F)cc4F)c3)cc2c1=O` the “Anti-tumor effect (in words)” value ([1]; 10 mg/kg group) was “strong anti-tumor effect”, the T/C % [1, 4] was 50.18% and the TGI % [1, 4] was 65.34%. For the same compound, the T/C % [1, 5] was 50.18%, the TGI % [1, 5] was 65.34% and the “Anti-tumor effect (in words)” value ([1]; 20 mg/kg group) was “strong anti-tumor effect”. It also gave a T/C % [1, 6] of 37.92%, a TGI % [1, 6] of 80.21% and a T/C % [1, 7] of 37.92%. The TGI % [1, 7] was 80.21%, the “Anti-tumor effect (in words)” value ([1]; 40 mg/kg group) was “significant anti-tumor effects” and the T/C % [1, 8] was 21.16%. The TGI % [1, 8] was 105.65%, the T/C % [1, 9] was 21.16% and the TGI % [1, 9] was 105.65%. For the same compound, the “Dose to play the effect” value ([1]; oral once a day for 20 days) was 10 mg/kg, the “Content of the crystal form A of the compound represented by formula (I) (%)” value (“Content … (I) (%)” for short) [2, 10] was 101.64% and the “Total impurity content (%)” value [2, 10] was 0.14%. The “Content … (I) (%)” value [2, 11] was 104.28%, the “Total impurity content (%)” value [2, 11] was 0.14% and the “Content … (I) (%)” value [2, 12] was 103.86%. For the same compound, the “Total impurity content (%)” value [2, 12] was 0.16%, the “Content … (I) (%)” value [2, 13] was 103.79% and the “Total impurity content (%)” value [2, 13] was 0.15%. The “Content … (I) (%)” value [2, 14] was 103.30%, the “Total impurity content (%)” value [2, 14] was 0.14% and the “Content … (I) (%)” value [2, 15] was 103.63%. The “Total impurity content (%)” value [2, 15] was 0.14%, the “Content … (I) (%)” value ([2]; Day 0) was 103.08% and the “Total impurity content (%)” value ([2]; Day 0) was 0.14%. The “Content … (I) (%)” value [2, 16] was 103.08%, the “Total impurity content (%)” value [2, 16] was 0.14% and the “Content … (I) (%)” value [2, 17] was 103.95%. The “Total impurity content (%)” value [2, 17] was 0.14%, the “Content … (I) (%)” value [2, 18] was 104.39% and the “Total impurity content (%)” value [2, 18] was 0.14%. For the same compound, the “Content … (I) (%)” value [2, 19] was 102.00%, the “Total impurity content (%)” value [2, 19] was 0.14% and the “Content … (I) (%)” value [2, 20] was 103.04%. The “Total impurity content (%)” value [2, 20] was 0.14%, the “Content … (I) (%)” value [2, 21] was 102.57% and the “Total impurity content (%)” value [2, 21] was 0.15%. The “Stability (conclusion of the solid stability test)” value ([2]; all test conditions of Table 7) was “good stability”, the AUC(0-t) ([3]; both sexes, beagle, dog, plasma, iv, 0.3 mg/kg, male and female Beagle dogs, vein, single) was 1.47 ± 0.353 µM·h and the AUC(0-t) [3, 22] was 1.29 ± 0.715 µM·h. For the same compound, the bioavailability [3, 22] was 87.8%, the AUC(0-t) ([3]; both sexes, beagle, dog, plasma, po, 1 mg/kg, male and female Beagle dogs, oral, 1 mg/kg once a day, day 7) was 5.88 µM·h and the AUC(0-t) ([3]; both sexes, beagle, dog, plasma, po, 1 mg/kg, male and female Beagle dogs, oral, 1 mg/kg, day 1) was 4.98 ± 0.946 µM·h. For the same compound, the AUC(0-t) ([3]; both sexes, beagle, dog, plasma, po, 3 mg/kg, male and female Beagle dogs, single) was 14.8 ± 2.51 µM·h, the C0 [3, 23] was 512 nM and the clearance [3, 23] was 6.18 ± 1.49 mL/min/kg. For the same compound, the half-life [3, 23] was 6.32 ± 1.62 h, the Vd ([3]; both sexes, dog, plasma, iv, male and female Beagle dogs, vein, 0.3 mg/kg, single, read-out: Vdss) was 2.47 ± 0.391 L/kg and the Tmax [3, 24] was 2 ± 1.1 h. It also gave a half-life [3, 24] of 6.92 ± 3.16 h, a Cmax ([3]; both sexes, dog, plasma, male and female Beagle dogs, oral, 0.3 mg/kg, single, read-out: Cmax) of 158 ± 68.4 nM and a Cmax at 7 days [3, 25] of 850 nM. It also gave a Tmax at 7 days [3, 25] of 1.33 h, a half-life at 7 days [3, 25] of 5.18 ± 0.487 h and a Tmax [3, 26] of 1.67 ± 0.516 h. The half-life [3, 26] was 5 ± 1.44 h, the Cmax ([3]; both sexes, dog, plasma, male and female Beagle dogs, oral, 1 mg/kg, day 1, read-out: Cmax) was 656 ± 30.7 nM and the Tmax [3, 27] was 3.08 ± 1.5 h. For the same compound, the half-life [3, 27] was 6.55 ± 1.76 h, the Cmax ([3]; both sexes, dog, plasma, male and female Beagle dogs, oral, 3 mg/kg, single, read-out: Cmax) was 1880 ± 274 nM and the AUC0-last [3, 28] was 5.88 ± 0.697 µM·h. The Cmax [3, 28] was 850±106 nm, the AUC0-last [3, 29] was 4.98 ± 0.946 µM·h and the Cmax [3, 29] was 656±30.7 nm.
